Data: patent publication US10239873B2, “7-azaindole or 4,7-diazaindole derivatives as IKKϵ epsilon and TBK1 inhibitor and pharmaceutical composition comprising same” (GREEN CROSS CORPORATION, priority 2015, dated 2019)

How the values were obtained:
IKKε = target: T1, IKKε (Homo sapiens, UniProt Q14164); assay: ADP-Glo Kinase Assay, inhibition activity on IKKε; type: biochemical
T1 construct: purchased Promega and/or Invitrogen V4158; PR8031B; V3991 (not assigned to the two kinases)
T1 sequence (Q14164 1-716): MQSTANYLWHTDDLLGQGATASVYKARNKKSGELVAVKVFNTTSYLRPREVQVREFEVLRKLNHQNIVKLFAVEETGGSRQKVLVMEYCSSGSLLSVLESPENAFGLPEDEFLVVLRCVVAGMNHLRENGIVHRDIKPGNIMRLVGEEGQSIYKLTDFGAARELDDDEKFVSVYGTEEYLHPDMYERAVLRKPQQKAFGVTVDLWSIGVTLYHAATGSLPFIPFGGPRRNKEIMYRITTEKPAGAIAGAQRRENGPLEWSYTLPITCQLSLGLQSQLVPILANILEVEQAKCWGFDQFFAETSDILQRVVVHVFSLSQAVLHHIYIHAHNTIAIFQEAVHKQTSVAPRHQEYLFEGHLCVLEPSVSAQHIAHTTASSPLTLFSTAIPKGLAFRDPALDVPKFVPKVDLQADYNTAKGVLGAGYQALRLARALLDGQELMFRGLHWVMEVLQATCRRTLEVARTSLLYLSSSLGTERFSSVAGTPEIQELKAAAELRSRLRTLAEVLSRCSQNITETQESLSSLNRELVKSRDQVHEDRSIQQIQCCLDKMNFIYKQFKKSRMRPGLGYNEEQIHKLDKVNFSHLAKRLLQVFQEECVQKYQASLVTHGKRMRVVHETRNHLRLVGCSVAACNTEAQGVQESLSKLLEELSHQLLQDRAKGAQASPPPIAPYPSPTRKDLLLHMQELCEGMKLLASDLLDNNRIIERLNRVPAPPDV
How it was run: (§1)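 Kinase activity measured with the ADP-Glo luminescent ADP-detection kit per manufacturer's protocol, using IKKε or TBK1 kinase enzyme systems. Reaction buffer: 40 mM Tris (pH 7.5), 20 mM MgCl2, 0.1 mg/mL BSA; luminescence read on a luminometer.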

TBK1 = target: T2, TBK1 (Homo sapiens, UniProt Q9UHD2); assay: ADP-Glo Kinase Assay, inhibition activity on TBK1; type: biochemical
T2 construct: purchased Promega (Invitrogen is also named in the same bracket) V4158; PR8031B; V3991 (not assigned to the two kinases)
T2 sequence (Q9UHD2 1-729): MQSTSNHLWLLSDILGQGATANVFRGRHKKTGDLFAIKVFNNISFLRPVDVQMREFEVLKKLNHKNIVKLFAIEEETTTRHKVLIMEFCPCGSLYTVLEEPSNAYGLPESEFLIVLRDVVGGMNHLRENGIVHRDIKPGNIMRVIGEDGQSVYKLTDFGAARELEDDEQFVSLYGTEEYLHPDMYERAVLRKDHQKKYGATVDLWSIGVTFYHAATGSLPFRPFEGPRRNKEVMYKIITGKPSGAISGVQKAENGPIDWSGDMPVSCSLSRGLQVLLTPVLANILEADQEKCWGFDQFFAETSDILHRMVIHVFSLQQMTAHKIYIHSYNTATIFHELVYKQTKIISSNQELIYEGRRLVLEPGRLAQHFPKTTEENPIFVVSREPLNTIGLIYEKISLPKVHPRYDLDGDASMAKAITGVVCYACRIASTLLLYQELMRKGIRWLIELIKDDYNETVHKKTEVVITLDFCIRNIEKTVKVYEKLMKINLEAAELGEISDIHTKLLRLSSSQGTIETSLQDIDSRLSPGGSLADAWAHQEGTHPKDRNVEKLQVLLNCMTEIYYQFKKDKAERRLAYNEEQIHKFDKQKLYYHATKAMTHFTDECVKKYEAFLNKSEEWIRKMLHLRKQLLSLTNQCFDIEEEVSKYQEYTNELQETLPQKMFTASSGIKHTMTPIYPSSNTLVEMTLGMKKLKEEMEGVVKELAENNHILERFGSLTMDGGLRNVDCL
How it was run: as §1

Compound | IC50 (IKKε) [nM] | IC50 (TBK1) [nM]
CC1CN(C(=O)NC2CCCC2)CC=C1c1c[nH]c2ncc(-c3ccc(S(C)(=O)=O)cc3)cc12 (stereo not drawn) [Example 121, N-cyclopentyl-5-methyl-4-(5-(4-(methylsulfonyl)phenyl)-1H-pyrrolo[2,3-b]pyridin-3-yl)-5,6-dihydropyridine-1(2H)-carboxamide] | 330 | 97
CCN1CC=C(c2c[nH]c3ncc(-c4ccc(OC)c(OC)c4)cc23)CC1 [Example 3, 5-(3,4-Dimethoxyphenyl)-3-(1-ethyl-1,2,3,6-tetrahydropyridin-4-yl)-1H-pyrrolo[2,3-b]pyridine] | > 10000 | 5930
COc1ccc(-c2cnc3[nH]cc(C4=CCN(CC(C)C)CC4)c3c2)cc1OC [Example 5, 5-(3,4-Dimethoxyphenyl)-3-(1-isobutyl-1,2,3,6-tetrahydropyridin-4-yl)-1H-pyrrolo[2,3-b]pyridine] | 2750 | 1560
CC1C=C(c2c[nH]c3ncc(-c4ccc(CN5CCN(C(=O)OC(C)(C)C)CC5)s4)cc23)CCN1C(=O)NC1CC1 (stereo not drawn) [Example 93, tert-Butyl 4-((5-(3-(1-(cyclopropylcarbamoyl)-6-methyl-1,2,3,6-tetrahydropyridin-4-yl)-1H-pyrrolo[2,3-b]pyridin-5-yl)thiophen-2-yl)methyl)piperazine-1-carboxylate] | 48 | 18
CCCS(=O)(=O)c1ccc(-c2cnc3[nH]cc(C4=CCN(C(=O)NC5CCCC5)CC4)c3c2)cc1 [Example 55, N-cyclopentyl-4-(5-(4-(propylsulfonyl)phenyl)-1H-pyrrolo[2,3-b]pyridin-3-yl)-5,6-dihydropyridine-1(2H)-carboxamide] | 600 | 51
CS(=O)(=O)c1cccc(-c2cnc3[nH]cc(C4=CCN(C(=O)NC5CCCC5)CC4)c3n2)c1 [Example 228, N-cyclopentyl-4-(2-(3-(methylsulfonyl)phenyl)-5H-pyrrolo[2,3-b]pyrazin-7-yl)-5,6-dihydropyridine-1(2H)-carboxamide] | 400 | 90
O=C(c1cccs1)N1CC=C(c2c[nH]c3ncc(-c4ccc(S(=O)(=O)N5CCOCC5)cc4)cc23)CC1 [Example 190, (4-(5-(4-(Morpholinosulfonyl)phenyl)-1H-pyrrolo[2,3-b]pyridin-3-yl)-5,6-dihydropyridin-1(2H)-yl)(thiophen-2-yl)methanone] | 390 | 140
COc1ccc(-c2cnc3[nH]cc(C4=CC(c5ccccc5)N(C(=O)NC(C)C)CC4)c3c2)cc1OC (stereo not drawn) [Example 119, 4-(5-(3,4-Dimethoxyphenyl)-1H-pyrrolo[2,3-b]pyridin-3-yl)-N-isopropyl-2-phenyl-5,6-dihydropyridine-1(2H)-carboxamide] | 3470 | 5410
CC1C=C(c2c[nH]c3ncc(-c4ccc(CN5CCN(C)CC5)cc4)cc23)CCN1C(=O)NC1CCC1 (stereo not drawn) [Example 99, N-cyclobutyl-2-methyl-4-(5-(4-((4-methylpiperazin-1-yl)methyl)phenyl)-1H-pyrrolo[2,3-b]pyridin-3-yl)-5,6-dihydropyridine-1(2H)-carboxamide] | 64 | 28
CCC(C)NC(=O)N1CC=C(c2c[nH]c3ncc(-c4ccc(CN5CCN(C)CC5)s4)cc23)CC1 (stereo not drawn) [Example 42, N-(sec-butyl)-4-(5-(5-((4-methylpiperazin-1-yl)methyl)thiophen-2-yl)-1H-pyrrolo[2,3-b]pyridin-3-yl)-5,6-dihydropyridine-1(2H)-carboxamide] | 62 | 1.9

The next molecules have a lower IC50 (IKKε) than those just listed; values first:

IC50 (IKKε) [nM] | IC50 (TBK1) [nM] | Compound
3.5 | 2.8 | CC(C)NC(=O)N1CCC(c2c[nH]c3ncc(-c4ccc(CN5CCN(C)CC5)cc4)cc23)=CC1C (stereo not drawn) [Example 86, N-isopropyl-2-methyl-4-(5-(4-((4-methylpiperazin-1-yl)methyl)phenyl)-1H-pyrrolo[2,3-b]pyridin-3-yl)-5,6-dihydropyridine-1(2H)-carboxamide]
6.9 | 1.1 | CC(C)NC(=O)N1CC=C(c2c[nH]c3ncc(-c4ccc(CN5CCN(C)CC5)s4)cc23)CC1 [Example 33, N-isopropyl-4-(5-(5-((4-methylpiperazin-1-yl)methyl)thiophen-2-yl)-1H-pyrrolo[2,3-b]pyridin-3-yl)-5,6-dihydropyridine-1(2H)-carboxamide]
1.5 | 1 | CC(C)NC(=O)N1CCC(c2c[nH]c3ncc(-c4ccc(CN5CCOCC5)s4)cc23)=CC1C (stereo not drawn) [Example 87, N-isopropyl-2-methyl-4-(5-(5-(morpholinomethyl)thiophen-2-yl)-1H-pyrrolo[2,3-b]pyridin-3-yl)-5,6-dihydropyridine-1(2H)-carboxamide]
8.8 | 4.5 | CC(C)NC(=O)N1CC=C(c2c[nH]c3ncc(-c4ccc(CN5CCOCC5)cc4)cc23)CC1 [Example 30, N-isopropyl-4-(5-(4-(morpholinomethyl)phenyl)-1H-pyrrolo[2,3-b]pyridin-3-yl)-5,6-dihydropyridine-1(2H)-carboxamide]
2.5 | 1.7 | CC1C=C(c2c[nH]c3ncc(-c4ccc(CN5CCOCC5)s4)cc23)CCN1C(=O)NC1CC1 (stereo not drawn) [Example 97, N-cyclopropyl-2-methyl-4-(5-(5-(morpholinomethyl)thiophen-2-yl)-1H-pyrrolo[2,3-b]pyridin-3-yl)-5,6-dihydropyridine-1(2H)-carboxamide]
38 | 28 | O=C(NC1CCCC1)N1CC=C(c2c[nH]c3ncc(-c4ccc(CN5CCOCC5)s4)cc23)CC1 [Example 72, N-cyclopentyl-4-(5-(5-(morpholinomethyl)thiophen-2-yl)-1H-pyrrolo[2,3-b]pyridin-3-yl)-5,6-dihydropyridine-1(2H)-carboxamide]
46 | 15 | CC(C)NC(=O)N1CC=C(c2c[nH]c3ncc(-c4cccc(C(=O)N5CCN(C)CC5)c4)cc23)CC1 [Example 31, N-isopropyl-4-(5-(3-(4-methylpiperazine-1-carbonyl)phenyl)-1H-pyrrolo[2,3-b]pyridin-3-yl)-5,6-dihydropyridine-1(2H)-carboxamide]
5.5 | 5.2 | CC(C)NC(=O)N1CCC(c2c[nH]c3ncc(-c4ccc(CN5CCOCC5)cc4)cc23)=CC1C (stereo not drawn) [Example 90, N-isopropyl-2-methyl-4-(5-(4-(morpholinomethyl)phenyl)-1H-pyrrolo[2,3-b]pyridin-3-yl)-5,6-dihydropyridine-1(2H)-carboxamide]
3.2 | 0.8 | CC(C)NC(=O)N1CCC(c2c[nH]c3ncc(-c4ccc(CN5CCN(C)CC5)s4)cc23)=CC1C (stereo not drawn) [Example 88, N-isopropyl-2-methyl-4-(5-(5-((4-methylpiperazin-1-yl)methyl)thiophen-2-yl)-1H-pyrrolo[2,3-b]pyridin-3-yl)-5,6-dihydropyridine-1(2H)-carboxamide]
33 | 15 | CC1CN(C(=O)NC2CCCC2)CC=C1c1c[nH]c2ncc(-c3ccc(CN4CCN(C)CC4)s3)cc12 (stereo not drawn) [Example 126, N-cyclopentyl-5-methyl-4-(5-(5-((4-methylpiperazin-1-yl)methyl)thiophen-2-yl)-1H-pyrrolo[2,3-b]pyridin-3-yl)-5,6-dihydropyridine-1(2H)-carboxamide]
41 | 12 | CCN1CCN(Cc2cccc(-c3cnc4[nH]cc(C5=CCN(C(=O)NC(C)C)CC5)c4c3)c2)CC1 [Example 24, 4-(5-(3-((4-Ethylpiperazin-1-yl)methyl)phenyl)-1H-pyrrolo[2,3-b]pyridin-3-yl)-N-isopropyl-3,6-dihydropyridine-1(2H)-carboxamide]
